Results taken from US8937078B2, “Quinazolinones as prolyl hydroxylase inhibitors” (Janssen Pharmaceutica NV, priority 2009, dated 2015).

Key:
[1] = test system: Hep-3B cells; assay: Cellular assay: erythropoietin secretion in Hep-3B cells; type: cell-based, human; conditions: Homo sapiens, Hep3B, 100 μM compound, 24 hours, percent of EPO secretion relative to assay control compound 7-[(4-Chloro-phenyl)-(5-methyl-isoxazol-3-ylamino)-methyl]-quinolin-8-ol, read-out: Cellular % EPO Stimulation
Protocol: Hep-3B cells (ATCC, Manassas, Va.) were plated in 96-well plates at 20,000 cells per well in 100 μl of DMEM containing 10% fetal bovine serum, 1% non-essential amino acids, 50 IU/mL of penicillin and 50 μg/mL of streptomycin (all cell culture reagents from Invitrogen, Carlsbad, Calif.). Twenty-four hours after plating, compounds were added and incubated for an additional 24 hours. All compounds were tested under saturating conditions with final compound concentrations at 100 μM. Fifty microliters of the supernatant was then transferred to a human Hypoxia assay kit (Meso-Scale Discovery, Gaithersburg, Md.). Erythropoietin in the supernatant was detected according to the manufacturer's instructions as follows. EPO detection plates were blocked with 3% BSA in PBS overnight and 50 μl of the supernatant was incubated at room temperature in an orbital shaker for 2 h. Twenty-five microliters of 0.5 μg/ml anti-EPO detection antibody was added for 2 hours at room temperature in an orbital shaker. After 3 washes in PBS, 150 μl of 1× read buffer is added and the plate is then read on the MSD SECTOR instrument.

[2] = target: T1, human PHD2 (PHD2181-417) (Homo sapiens, UniProt Q9GZT9); assay: PHD enzymatic assay ([14C]-succinic acid production); type: biochemical; conditions: PHD2181-417, HIF-1α peptide 10 μM, average of results; for IC50: read-out: Enzyme pIC50 (converted)
T1 construct: Smt (SUMO) tag (cleaved yes); made in house; host or cells: E. coli BL21 (pBAD vector)
Protocol: Protein production was achieved by expression in BL21 cells grown in Terrific Broth containing 100 μg/ml ampicillin. Cell cultures were inoculated at 37° C. and grown to an OD600 of 0.8. Cultures were induced with 0.1% arabinose and grown overnight at 20° C. with continuous shaking at 225 rpm. Cells were then harvested by centrifugation and stored at −80° C. Cell pellets were suspended in Buffer A (50 mM Tris-HCl pH 7.2, 100 mM NaCl, 100 mM L-arginine, 1 mM TCEP, 0.05% (w/v) NP-40, 50 mM imidazole) followed by the addition of lysozyme and benzonase. Cells were lysed by sonication and the lysate was cleared by centrifugation (15,000 rpm, 90 min, 4° C.). The protein was purified by nickel affinity chromatography using a HisTrap Crude FF column (GE Healthcare). Samples were eluted in Buffer A with a 50-200 mM imidazole gradient. […] The flow-through was then dialyzed into 50 mM MES pH 6.0, 1 mM TCEP, 5 mM NaCl for ion exchange chromatography on a HiTrap SP Cation Exchange column (GE Healthcare). […] Fractions were pooled for further purification by size exclusion chromatography over a Superdex 75 Size Exclusion Column (GE Healthcare). Final protein was concentrated to 4 mg/ml and dialyzed in 10 mM PIPES pH 7.0, 100 mM NaCl, 0.5 mM TCEP.
(10 μM, California Peptide Research Inc., Napa, Calif.), and [5-^14C]-2-oxoglutaric acid (50 mCi/mmol, Moravek Chemicals, Brea, Calif.) in reaction buffer (40 mM Tris-HCl, pH 7.5, 0.4 mg/ml catalase, 0.5 mM DTT, 1 mM ascorbate) for 10 minutes. The reaction was stopped by addition of 50 μl of 70 mM H3PO4 and 50 μl of 500 mM NaH2PO4, pH3.2. Detection of [^14C]-succinic acid was achieved by separating from [5-^14C]-2-oxoglutaric acid by incubating the reaction mixture with 100 μl of 0.16 M DNP prepared in 30% perchloric acid. Next, 50 μl of unlabeled 20 mM 2-oxoglutaric acid/20 mM succinic acid, serving as carrier for the radioactivity, was added to the mixture, and was allowed to proceed for 30 minutes at room temperature. The reaction was then incubated with 50 μl of 1 M 2-oxoglutaric acid for 30 additional minutes at room temperature to precipitate the excess DNP. The reaction was then centrifuged at 2800×g for 10 minutes at room temperature to separate [^14C]-succinic acid in the supernatant from the precipitated [^14C]-dinitrophenylhydrazone. Fractions of the supernatant (400 μl) were counted using a beta counter (Beckman Coulter, Fullerton, Calif.).

T1 sequence (Q9GZT9 181-417): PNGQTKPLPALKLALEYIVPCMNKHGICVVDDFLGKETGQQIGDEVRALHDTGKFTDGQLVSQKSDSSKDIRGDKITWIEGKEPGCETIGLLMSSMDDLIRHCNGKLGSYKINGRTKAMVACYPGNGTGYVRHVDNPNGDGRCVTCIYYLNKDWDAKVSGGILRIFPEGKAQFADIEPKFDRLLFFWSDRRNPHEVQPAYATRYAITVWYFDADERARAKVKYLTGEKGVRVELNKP

SMILES | IC50 [2] | Enzyme pIC50 [2] | Emax at 100 µM [1]
Cc1cccc(C)c1OCc1ccc2nc(-n3cc(C(=O)O)cn3)[nH]c(=O)c2c1 [Example 75, 1-[6-(2,6-Dimethyl-phenoxymethyl)-4-oxo-3,4-dihydro-quinazolin-2-yl]-1H-pyrazole-4-carboxylic acid] | 20 nM |  | 20%
O=C(O)c1cnn(-c2nc3cc(Oc4ccccc4)ccc3c(=O)[nH]2)c1 [Example 66, 1-(4-Oxo-7-phenoxy-3,4-dihydro-quinazolin-2-yl)-1H-pyrazole-4-carboxylic acid] | 63.1 nM |  | 41%
CN(C)c1ccc2nc(-n3cc(C(=O)O)cn3)[nH]c(=O)c2c1 [Example 125, 1-(6-Dimethylamino-4-oxo-3,4-dihydro-quinazolin-2-yl)-1H-pyrazole-4-carboxylic acid] | 50.1 nM |  | 19%
O=C(O)c1cnn(-c2nc3ccc(OC4CCCCC4)cc3c(=O)[nH]2)c1 [Example 102, 1-(6-cyclohexyloxy-4-oxo-3,4-dihydro-quinazolin-2-yl)-1H-pyrazole-4-carboxylic acid] | 20 nM |  | 59%
O=C(O)c1cnn(-c2nc3ccc(F)cc3c(=O)[nH]2)c1 [Example 4, 1-(6-Fluoro-4-oxo-3,4-dihydro-quinazolin-2-yl)-1H-pyrazole-4-carboxylic acid] | 39.8 nM |  | 15%
O=C(O)c1cnn(-c2nc3ccc(Oc4cccc(Cl)c4Cl)cc3c(=O)[nH]2)c1 [Example 60, 1-[6-(2,3-dichloro-phenoxy)-4-oxo-3,4-dihydro-quinazolin-2-yl]-1H-pyrazole-4-carboxylic acid] | 31.6 nM |  | 70%
O=C(O)c1cnn(-c2nc3c(Sc4ccccc4)cccc3c(=O)[nH]2)c1 [Example 113, 1-(4-Oxo-8-phenylsulfanyl-3,4-dihydro-quinazolin-2-yl)-1H-pyrazole-4-carboxylic acid] | 200 nM |  | 17%
O=C(O)c1cnn(-c2nc3cc(F)c(Br)cc3c(=O)[nH]2)c1 [Example 127, 1-(6-Bromo-7-fluoro-4-oxo-3,4-dihydro-quinazolin-2-yl)-1H-pyrazole-4-carboxylic acid] | 31.6 nM |  | 9%
COc1cc2nc(-n3cc(C(=O)O)cn3)[nH]c(=O)c2c(OC)c1OC [Example 18, 1-(5,6,7-Trimethoxy-4-oxo-3,4-dihydro-quinazolin-2-yl)-1H-pyrazole-4-carboxylic acid] | 316 nM |  | 42%
COc1ccc(Sc2cc3c(=O)nc(-n4cc(C(=O)O)cn4)[nH]c3cc2Cl)cc1OC [Example 26, 1-[7-Chloro-6-(3,4-dimethoxy-phenylsulfanyl)-4-oxo-1,4-dihydro-quinazolin-2-yl]-1H-pyrazole-4-carboxylic acid] | 31.6 nM |  | 55%
O=C(O)c1cnn(-c2nc3ccc(Oc4cccc5c4CCCC5)cc3c(=O)[nH]2)c1 [Example 44, 1-[4-Oxo-6-(5,6,7,8-tetrahydro-naphthalen-1-yloxy)-3,4-dihydro-quinazolin-2-yl]-1H-pyrazole-4-carboxylic acid] | 25.1 nM |  | 52%
O=C(O)c1cnn(-c2nc3ccc(Oc4cccc(C(F)(F)F)c4)cc3c(=O)[nH]2)c1 [Example 100, 1-[4-oxo-6-(3-trifluoromethyl-phenoxy)-3,4-dihydro-quinazolin-2-yl]-1H-pyrazole-4-carboxylic acid] | 25.1 nM |  | 55%
O=C(O)c1cnn(-c2nc3c(F)cccc3c(=O)[nH]2)c1 [Example 118, 1-(8-Fluoro-4-oxo-3,4-dihydro-quinazolin-2-yl)-1H-pyrazole-4-carboxylic acid] | 79.4 nM |  | 16%
CCC(C)c1ccc2nc(-n3cc(C(=O)O)cn3)[nH]c(=O)c2c1 (stereo not shown) [Example 120, 1-(6-sec-Butyl-4-oxo-3,4-dihydro-quinazolin-2-yl)-1H-pyrazole-4-carboxylic acid] | 20 nM |  | 68%
O=C(O)c1cnn(-c2nc3ccc(Oc4cccnc4)cc3c(=O)[nH]2)c1 [Example 65, 1-[4-Oxo-6-(pyridin-3-yloxy)-3,4-dihydro-quinazolin-2-yl]-1H-pyrazole-4-carboxylic acid] | 25.1 nM |  | 42%
Cc1ccccc1-c1ccc2nc(-n3cc(C(=O)O)cn3)[nH]c(=O)c2c1 [Example 69, 1-(4-Oxo-6-o-tolyl-3,4-dihydro-quinazolin-2-yl)-1H-pyrazole-4-carboxylic acid] |  | 8.1 | 57%
O=C(O)c1cnn(-c2nc3ccc(Br)cc3c(=O)[nH]2)c1 [Example 13, 1-(6-Bromo-4-oxo-3,4-dihydro-quinazolin-2-yl)-1H-pyrazole-4-carboxylic acid] | 63.1 nM |  | 35%
O=C(O)c1cnn(-c2nc3ccccc3c(=O)[nH]2)c1 [Example 126, 1-(4-Oxo-3,4-dihydro-quinazolin-2-yl)-1H-pyrazole-4-carboxylic acid] | 63.1 nM |  | 9%

Now from value to molecule, other results behind:

IC50 [2] | Enzyme pIC50 [2] | SMILES | Emax at 100 µM [1]
50.1 nM |  | Cc1cccc(-c2ccc3c(=O)[nH]c(-n4cc(C(=O)O)cn4)nc3c2)c1 [Example 189, 1-(4-Oxo-7-m-tolyl-3,4-dihydro-quinazolin-2-yl)-1H-pyrazole-4-carboxylic acid] | 25%
25.1 nM |  | O=C(O)c1cnn(-c2nc3ccc(-c4ccccc4C(F)(F)F)cc3c(=O)[nH]2)c1 [Example 201, 1-[4-Oxo-6-(2-trifluoromethyl-phenyl)-3,4-dihydro-quinazolin-2-yl]-1H-pyrazole-4-carboxylic acid] | 78%
398 nM |  | CC(C)(C)c1ccc2c(=O)[nH]c(-n3cc(C(=O)O)cn3)nc2c1 [Example 147, 1-(7-tert-Butyl-4-oxo-3,4-dihydro-quinazolin-2-yl)-1H-pyrazole-4-carboxylic acid] | 11%
31.6 nM |  | O=C(Nc1ccccc1)Nc1ccc2nc(-n3cc(C(=O)O)cn3)[nH]c(=O)c2c1 [Example 168, 1-[4-Oxo-6-(3-phenyl-ureido)-3,4-dihydro-quinazolin-2-yl]-1H-pyrazole-4-carboxylic acid] | 4%
31.6 nM |  | CS(=O)(=O)Nc1ccc2nc(-n3cc(C(=O)O)cn3)[nH]c(=O)c2c1 [Example 170, 1-(6-Methanesulfonylamino-4-oxo-3,4-dihydro-quinazolin-2-yl)-1H-pyrazole-4-carboxylic acid] | 15%
39.8 nM |  | O=C(O)c1cnn(-c2nc3ccc(Cl)cc3c(=O)[nH]2)c1 [Example 153, 1-(6-Chloro-4-oxo-3,4-dihydro-quinazolin-2-yl)-1H-pyrazole-4-carboxylic acid] | 22%
39.8 nM |  | CSc1cc2c(=O)[nH]c(-n3cc(C(=O)O)cn3)nc2cc1Cl [Example 158, 1-(7-Chloro-6-methylsulfanyl-4-oxo-3,4-dihydro-quinazolin-2-yl)-1H-pyrazole-4-carboxylic acid] | 15%
31.6 nM |  | Cc1cccc(C)c1CNc1ccc2nc(-n3cc(C(=O)O)cn3)[nH]c(=O)c2c1 [Example 175, 1-[6-(2,6-Dimethyl-benzylamino)-4-oxo-3,4-dihydro-quinazolin-2-yl]-1H-pyrazole-4-carboxylic acid] | 97%
